Source: patent US8305585B2, “Fiber-optic assay apparatus based on phase-shift interferometry” (Pall Corporation, priority 2003, dated 2012)

Tests used:
anti-Lewis Y antibody = experiment: Negative control: binding to immobilized irrelevant antibody; settings: 200 μg/mL biotin
Description: Another negative control was carried out using an irrelevant antibody (anti-Lewis Y antibody from Calbiochem, San Diego Calif.; cat #434636) immobilized in an identical fashion to the anti-biotin antibody above. This immobilized antibody was exposed to a solution of 200 μg/mL biotin.

[1] = test system: mouse anti-biotin antibody; experiment: Small molecule binding to immobilized anti-biotin antibody on NHS-ester activated tip; settings: biotin 200 μg/mL, sucrose 2 mg/mL in PBS; FIG. 10
Description: This example illustrates the binding of a low molecular weight molecule binding to an immobilized high molecular weight molecule. […] The tip was rinsed with PBS for 2 minutes. Following the PBS rinse, the tip was quenched with an aqueous solution of 100 μM ethanolamine pH 8.5 (Sigma-Aldrich Chemical Company, St Louis, Mo.; cat #E9508) for 5 minutes and then was rinsed again in PBS for 2 minutes.
Controls using a solution of sucrose (Sigma-Aldrich Chemical Company, St Louis, Mo.; cat #S8501) (2 mg/mL) and PBS were carried out on the second and the third fibers to determine baseline noise.

[2] = Sequential binding test on biotin-derivatized sensor tip; settings: 50 μg/ml in PBS, 9 minutes; FIG. 6
Text: The two-layer configuration on the tip of an optic fiber is used for this test. The thickness of the first Ta2O5 layer is 25 nm and the thickness of the second SiO2 layer is 770 nm. The fiber was purchased from Ocean Optics (Dunedin, Fla.). It was manually cut into segments that are 40 mm long. Both ends of these segments were polished to standard mirror surface quality. The polishing method used here was exactly the same as those for optical lenses and mirrors. One surface of these fiber segments was outsourced to an optical coating house for Ta2O5 layer and SiO2 layer. This vendor employed an ion-beam assisted physical vapor deposition (IAPVD) coater made by […] is a commonly used coating technique for anti-reflection and optical filters. The experimental steps included the following (all steps are performed at room temperature unless otherwise noted): The fiber tip was coated with a polymer monolayer derivatized with biotin. The polymer monolayer was prepared using a biotinylated lipid (custom). This lipid was using to form a lipid monolayer on the surface of water solution. The monolayer was cross linked using UV light for 15minutes. Clean, dry fibers were then brought in contact with the floating thin film and the biotin polymer was adsorbed onto the fiber tip. The fibers were then dryed at 60° C. for 1 hour. […]

O=C(O)CCCC[C@@H]1SC[C@@H]2NC(=O)N[C@@H]21 [biotin]
binding to irrelevant antibody (anti-Lewis Y antibody): lack of biotin binding
change in optical thickness on exposure (binding) [1]: increase in optical thickness

OC[C@H]1O[C@@](CO)(O[C@H]2O[C@H](CO)[C@@H](O)[C@H](O)[C@H]2O)[C@@H](O)[C@@H]1O [sucrose]
change in optical thickness on exposure (binding) [1]: no detectable increase over baseline

streptavidin: streptavidin (Pierce Biotechnology, cat #21122)
binding to immobilized biotin (7th order valley phase shift) [2]: binding
